What all share (type): cell-based, human
Data set [1] deals with HL-60 cells. The data set is described as follows: Intracellular GSH levels by HPLC-EC in HL-60 cells. The settings on record: for effect on intracellular GSH (words): HL-60 cells; for activity at 25 µM / activity at 75 µM: Homo sapiens, read-out: Int. GSH % con.; for activity at 25 µM / Int. GSH % con. / activity at 75 µM: 24 hours treatment; for activity at 75 µM: HL-60, 75 μM. Here is the method: (§1) Cell lines and culture conditions. Human lung epithelial cancer (A549), human leukemia HL-60 and human prostate (PC-3) tumor cells were purchased from ATCC (Manassas, Va.). A549 and PC-3 cells were grown in Ham's F12 medium (F12) and Kaighn's modification of Ham's F12 medium (F12K) with 2 mM L-glutamine (ATCC), respectively, supplemented with 10% fetal bovine serum (FBS) and 5% pen/strep (10,000 unit, Cellgro). HL-60 cells were grown in Iscove's modified Dulbecco's medium with 4 mM L-glutamine (ATCC) supplemented with 20% FBS and 5% pen/strep. Cell were grown in T-75 flask at 37° C. and 5% CO2 air atmosphere and in 24-well plates for GSH levels and LDH release measurements.
(§2) Intracellular levels of GSH. Intracellular GSH levels can be determined by HPLC-EC. Cultured cells from 24-well plates were washed once with 1 ml of PBS and then re-suspended in 0.5 ml of distilled water with 40 μM of digitonin (2 mM stock solution in DMSO) for 30 min at room temperature. Then, 50 μl of 10% meta-phosphoric acid were added (1% final concentration), the samples were sonicated for 2 min, centrifuged at 20,000 g for 10 min, and 0.2 ml of supernatant placed in vials for HPLC analysis. […] The flow rate was […]. The retention time for GSH in these conditions was 7.5 min. The HPLC instrument was from ESA, Inc. (Chelmsford, Mass.), equipped with an autosampler (model 540) and a Coul array detector (model 5600A). The potential applied was +0.75 V vs. H/Pd electrode, and the injection volume 5 μl.

Data set [2] deals with PC-3 cells. As to the kind of experiment: Cytotoxicity as LDH release in PC-3 cells. The settings on record: for LDH release, % of control at 50 µM: Homo sapiens, read-out: LDH rel. % con.; for LDH release, % of control at 50 µM / LDH rel. % con.: PC-3, 50 μM, 48 hours treatment. Here is the method: as §1
(§3) Assessment of cytotoxicity. In one exemplary method, membrane integrity of A549, HL-60 and PC-3 cells was used as an index of drug-induced cytotoxicity, and was assessed by monitoring the release of cytosolic lactate dehydrogenase (LDH). LDH activity was measured in the culture medium and cell lysates (50 mM HEPES, Triton X-100 0.5%, pH 7) using a plate reader format as previously described (41). Briefly, 5 μl of cell culture supernatant and lysates were incubated with 0.24 mM NADH in a Tris/NaCl pH 7.2 buffer in 96-well plates for 5 min at 25° C. The reaction was started by the addition of 9.8 mM pyruvate and the consumption of NADH followed at 340 nm for 5 min at 30° C. Percent LDH release was calculated by the following: (supernatant LDH/supernatant LDH+lysate LDH)×100.
Background: Release of lactate dehydrogenase indicates damage to the cell membrane.

Data set [3] concerns HL-60 cells. The data set is described as follows: Cytotoxicity as LDH release in HL-60 cells. The settings on record: for LDH release, % of control at 25 µM / LDH release, % of control at 50 µM: Homo sapiens, read-out: LDH rel. % con.; for LDH release, % of control at 25 µM / LDH rel. % con. / LDH release, % of control at 50 µM: 48 hours treatment. The procedure:
as §1, §3

The subject of data set [4] is PC-3 cells. The data set is described as follows: Intracellular GSH levels by HPLC-EC in PC-3 cells. The settings on record: for activity at 25 µM / Int. GSH % con.: PC-3, 25 μM. Here is the method: as §1, §2
For data set [5], the system named is A549 cells. As to the kind of experiment: Cytotoxicity as LDH release in A549 cells. Particulars: 48 hours treatment; for LDH release, % of control at 50 µM / LDH release, % of control at 75 µM: Homo sapiens, read-out: LDH rel. % con.; for LDH release, % of control at 50 µM: A549, 50 μM; for LDH release, % of control at 75 µM / LDH rel. % con.: A549, 75 μM. The procedure:
as §1, §3

Data set [6] concerns A549 cells. The data set is described as follows: Intracellular GSH levels by HPLC-EC in A549 cells. Here is the method:
as §1, §2

[7] abbreviates: Homo sapiens, 24 hours treatment, read-out: Int. GSH % con.
Setting [8] is: Homo sapiens, A549, 50 μM, 24 hours treatment, read-out: Int. GSH % con.
Where [9] appears, read: Homo sapiens, A549, 25 μM, 24 hours treatment, read-out: Int. GSH % con.
Where [10] appears, read: Homo sapiens, A549, 25 μM, 2 h, read-out: Intracellular GSH levels, % compared to control.
Setting [11] is: Homo sapiens, A549, 25 μM, 4 h, read-out: Intracellular GSH levels, % compared to control.

Like-named read-outs stand apart in the source and are kept apart here.

Take `COc1cc([C@@H]2c3cc4c(cc3[C@@H](O[C@@H]3O[C@@H]5CO[C@@H](C)O[C@H]5[C@H](O)[C@H]3O)[C@H]3COC(=O)[C@H]23)OCO4)cc(OC)c1O` [Etoposide, reference compound]: in the data set with HL-60 cells [1], the “effect on intracellular GSH (words)” value was “relatively effective for depleting GSH”. In addition, the activity at 25 µM was determined as 7% in the data set with HL-60 cells [1] (HL-60, 25 μM) and 83% with PC-3 cells [4] (setting [7]). For the same compound, the LDH release, % of control at 50 µM turned out to be 124% in the data set with PC-3 cells [2] and 294% in the data set on A549 cells [5]. Moreover, in the data set with HL-60 cells [3] (HL-60 cells), the “toxicity” value is recorded as “toxic”. In addition, in the data set on HL-60 cells [3] (HL-60, 25 μM), the LDH release, % of control at 25 µM turned out to be 290%. In addition, the activity at 50 µM in the data set with A549 cells [6] (setting [8]) amounted to 55%.
With `C=C(C)[C@H]1Cc2c(ccc3c2O[C@@H]2COc4cc(OC)c(OC)cc4[C@@H]2C3=O)O1` [Rotenone, reference compound], in the data set with HL-60 cells [1], the “effect on intracellular GSH (words)” value was “relatively effective for depleting GSH”. Also, the activity at 25 µM in the data set on HL-60 cells [1] (HL-60, 25 μM) was under 5%; with PC-3 cells [4] (setting [7]) it was 74%. The LDH release, % of control at 50 µM with PC-3 cells [2] came to 180%. Besides, the LDH release, % of control at 25 µM in the data set with HL-60 cells [3] (HL-60, 25 μM) is 421%. The LDH release, % of control at 75 µM in the data set with A549 cells [5] is 170%. For the same compound, in the data set with A549 cells [6] (setting [8]), the activity at 50 µM came to 53%.
Turning to `COc1cc2c(cc1O)CC[C@@H]1[C@@H]2CC[C@]2(C)[C@@H](O)CC[C@@H]12` [2-ME, 2-methoxyestradiol, reference compound], the “Int. GSH % con.” value in the data set on HL-60 cells [1] (HL-60, 25 μM) was determined as 41 % con; in the data set with PC-3 cells [4] (24 hours treatment), 68 % con; with A549 cells [6] (A549, 50 μM, 24 hours treatment), 49 % con. Besides, the “LDH rel. % con.” value in the data set with PC-3 cells [2] worked out at 128 % con; in the data set on HL-60 cells [3] (HL-60, 25 μM), 265 % con; in the data set with A549 cells [5], 150 % con.
`O=C1CC(c2ccc(O)cc2)Oc2cc(O)cc(O)c21` (stereo not drawn) [Naringenin, 4′,5,7-trihydroxyflavanone]: in the data set with HL-60 cells [1], the activity at 75 µM was found to be 73%. For the same compound, the LDH release, % of control at 50 µM with PC-3 cells [2] was determined as 107%; in the data set with HL-60 cells [3] (HL-60, 50 μM) it was 95%. Besides, the activity at 25 µM with PC-3 cells [4] (setting [7]) was determined as 83%; with A549 cells [6] (setting [9]) it was 17%. Besides, in the data set with A549 cells [5], the LDH release, % of control at 75 µM was determined as 130%.
Regarding `Oc1cc(O)c2cc(O)c(-c3ccc(O)c(O)c3)[o+]c2c1` [Cyanidin], the activity at 75 µM in the data set with HL-60 cells [1] came out at 95%; with A549 cells [6] (Homo sapiens, A549, 75 μM, 24 hours treatment, read-out: Int. GSH % con.) it was 82%. The LDH release, % of control at 50 µM in the data set with PC-3 cells [2] amounted to 93%; with HL-60 cells [3] (HL-60, 50 μM), 110%. In addition, the activity at 50 µM in the data set on PC-3 cells [4] (Homo sapiens, PC-3, 50 μM, 24 hours treatment, read-out: Int. GSH % con.) worked out at 120%. Moreover, the LDH release, % of control at 75 µM in the data set with A549 cells [5] was found to be 110%.
On to `O=c1cc(-c2ccc(O)cc2)oc2cc(O)cc(O)c12` [Apigenin], for which the “Int. GSH % con.” value in the data set with HL-60 cells [1] (HL-60, 50 μM) turned out to be 66 % con; with PC-3 cells [4] (24 hours treatment), 32 % con; in the data set with A549 cells [6] (A549, 25 μM, 24 hours treatment) it was 9 % con. Also, the “LDH rel. % con.” value in the data set on PC-3 cells [2] came out at 142 % con; with HL-60 cells [3] (HL-60, 50 μM) it was 259 % con; in the data set on A549 cells [5] it was 284 % con. For the same compound, the “effect on curcumin-induced toxicity, LDH release” value in the data set with PC-3 cells [2] (PC-3 cells, 48 hours (FIG. 20C)) was “potentiated the curcumin's toxicity, but unexpectedly less than chrysin”. In the data set on PC-3 cells [4] (PC-3 cells), the “effect on intracellular GSH (words)” value was “one active flavone-like structure for inducing GSH depletion”. Further, the “Intracellular GSH levels, % compared to control” value in the data set with A549 cells [6] (A549, 25 μM, 4 h) is 17.1 ± 1.4%.
Consider `COc1ccc2c(=O)cc(-c3ccccc3)oc2c1` [7-MF, 7-Methoxyflavone], for which the “effect on intracellular GSH (words)” value in the data set with A549 cells [6] (A549 cells) is listed as “less effective than 7-HF but more effective than flavone”. Further, the activity at 25 µM with A549 cells [6] (setting [10]) amounted to 78.2 ± 2.4%.
As to `CN(C)C(=O)CCSC(SCCC(=O)O)c1cccc(/C=C/c2ccc3ccc(Cl)cc3n2)c1` (stereo not drawn) [MK-571, reference compound], the activity at 25 µM in the data set on HL-60 cells [1] (HL-60, 25 μM) is 40%; in the data set with PC-3 cells [4] (setting [7]), 41%; in the data set with A549 cells [6] (setting [10]) it was 62.6 ± 4.9%; in the data set with A549 cells [6] (setting [11]), under 5%; in the data set on A549 cells [6] (setting [9]), under 5%. The LDH release, % of control at 50 µM in the data set on PC-3 cells [2] was determined as 143%; with A549 cells [5], 249%. Also, the LDH release, % of control at 25 µM in the data set with HL-60 cells [3] (HL-60, 25 μM) stood at 169%.
As for `O=C(/C=C/c1ccc(O)cc1)c1ccccc1` [4-HC, 4-hydroxychalcone], the results for the activity at 25 µM with A549 cells [6] (setting [10]) and with A549 cells [6] (setting [11]) were 5.5 ± 0.4% and under 5%, respectively.

The values above are taken from US7790762B2, “Compounds and methods for thiol-containing compound efflux and cancer treatment” (National Jewish Health, priority 2002, dated 2010).
